The values below come from patent publication US20190031667A1, “PESTICIDALLY ACTIVE HETEROCYCLIC DERIVATIVES WITH SULPHUR CONTAINING SUBSTITUENTS” (SYNGENTA PARTICIPATIONS AG, priority 2016, published 2019).

For data set [1], the system named is Spodoptera littoralis (Egyptian cotton leaf worm). Description: Example B1: Activity against Spodoptera littoralis, sprayed cotton leaf discs. Format: in vivo. Particulars: foliar, 72 h, application rate 200 ppm, L1 larvae, 3 days after infestation. As to the method: Example B1: Activity against Spodoptera littoralis (Egyptian cotton leaf worm) Cotton leaf discs were placed onto agar in 24-well microtiter plates and sprayed with aqueous test solutions prepared from 10′000 ppm DMSO stock solutions. After drying the leaf discs were infested with five L1 larvae. The samples were assessed for mortality, anti-feeding effect, and growth inhibition in comparison to untreated samples 3 days after infestation. Control of Spodoptera littoralis by a test sample is given when at least one of the categories mortality, anti-feedant effect, and growth inhibition is higher than the untreated sample.

Data set [2] deals with Diabrotica Balteata (Corn Root Worm). Description: Example B4: Activity against Diabrotica balteata, sprayed maize sprouts. It is filed as in vivo. The conditions noted are these: 96 h, application rate 200 ppm, L2 larvae, 4 days after infestation, read-out: effect in at least one of the two categories (mortality or growth inhibition). As to the method: Example B4: Activity Against Diabrotica Balteata (Corn Root Worm)
Maize sprouts, placed onto an agar layer in 24-well microtiter plates were treated with aqueous test solutions prepared from 10′000 ppm DMSO stock solutions by spraying. After drying, the plates were infested with L2 larvae (6 to 10 per well). The samples were assessed for mortality and growth inhibition in comparison to untreated samples 4 days after infestation.

Data set [3] has as its system Euschistus heros (Neotropical Brown Stink Bug). The data set can be described thus: Example B8: Activity against Euschistus heros, sprayed soybean leaves. It is filed as in vivo. Particulars: 120 h, application rate 200 ppm, N2 nymphs, 5 days after infestation, read-out: effect in at least one of the two categories (mortality or growth inhibition). As to the method:
Example B8: Activity Against Euschistus heros (Neotropical Brown Stink Bug)
Soybean leaves on agar in 24-well microtiter plates were sprayed with aqueous test solutions prepared from 10′000 ppm DMSO stock solutions. After drying the leaves were infested with N2 nymphs. The samples were assessed for mortality and growth inhibition in comparison to untreated samples 5 days after infestation.

The test system of data set [4] is Plutella xylostella (Diamond Back Moth). The data set can be described thus: Example B3: Activity against Plutella xylostella, artificial diet. Format: in vivo. The conditions noted are these: 120 h, application rate 200 ppm, L2 larvae, 5 days after infestation, read-out: effect in at least one of the two categories (mortality or growth inhibition). On the procedure:
Example B3: Activity Against Plutella xylostella (Diamond Back Moth)
24-well microtiter plates with artificial diet were treated with aqueous test solutions prepared from 10′000 ppm DMSO stock solutions by pipetting. After drying, the plates were infested with L2 larvae (10 to 15 per well). The samples were assessed for mortality and growth inhibition in comparison to untreated samples 5 days after infestation.

For data set [5], the system named is Myzus persicae (Green Peach Aphid). The data set can be described thus: Example B5: Activity against Myzus persicae, sprayed sunflower leaf discs. Format: in vivo. The conditions noted are these: foliar, 144 h, application rate 200 ppm, mixed-age aphids, 6 days after infestation. On the procedure: Example B5: Activity Against Myzus persicae (Green Peach Aphid)
Sunflower leaf discs were placed onto agar in a 24-well microtiter plate and sprayed with aqueous test solutions prepared from 10′000 ppm DMSO stock solutions. After drying, the leaf discs were infested with an aphid population of mixed ages. The samples were assessed for mortality 6 days after infestation.

The melting point is the temperature, or range, at which the solid turns liquid. Take `CCS(=O)(=O)c1ccc(-c2cc(F)cc(F)c2)nc1-n1cc2cnc(C(F)(F)F)cc2n1` [Compound P1, 2-[6-(3,5-difluorophenyl)-3-ethylsulfonyl-2-pyridyl]-6-(trifluoromethyl)pyrazolo[4,3-c]pyridine]: the melting point is 207 to 209 °C.

In data set [1], `CCS(=O)(=O)c1ccc(-n2cncn2)nc1-n1nc2cc(C(F)(F)F)ncc2c1Cl` [Compound P2, 3-chloro-2-[3-ethylsulfonyl-6-(1,2,4-triazol-1-yl)-2-pyridyl]-6-(trifluoromethyl)pyrazolo[4,3-c]pyridine] yielded a percent control (mortality, anti-feedant effect or growth inhibition) at 200 ppm of at least 80%. Moreover, the percent effect (mortality or growth inhibition) at 200 ppm in data set [2] and in data set [3] was at least 80% in each case.

On to `CCS(=O)(=O)c1ccc(-n2cnc(Cl)n2)nc1-n1nc2cc(C(F)(F)F)ncc2c1Cl` [Compound P4], for which the percent control (mortality, anti-feedant effect or growth inhibition) at 200 ppm in data set [1] was at least 80%.

The molecule `CCS(=O)(=O)c1ccc(-n2cc(C#N)cn2)nc1-n1cc2cnc(C(F)(F)F)cc2n1` [Compound P5] had a percent control (mortality, anti-feedant effect or growth inhibition) at 200 ppm in data set [1] of at least 80%. Also, the percent effect (mortality or growth inhibition) at 200 ppm in data set [4], in data set [2] and in data set [3] was at least 80% throughout.

`CCS(=O)(=O)c1ccc(-c2cccc(F)c2)nc1-n1nc2cc(C(F)(F)F)ncc2c1Cl` [Compound P6] gave a percent control (mortality, anti-feedant effect or growth inhibition) at 200 ppm in data set [1] of at least 80%. The percent effect (mortality or growth inhibition) at 200 ppm in data set [4] was at least 80%.

Turning to `CCS(=O)(=O)c1ccc(-c2cccc(F)c2)nc1-n1cc2cnc(C(F)(F)F)cc2n1` [Compound P7], the percent control (mortality, anti-feedant effect or growth inhibition) at 200 ppm in data set [1] was at least 80%.

What is called mortality is the percentage killed. A high value points to fewer survivors. In turn, `CCS(=O)(=O)c1ccc(-n2cccn2)nc1-n1cc2cnc(C(F)(F)F)cc2n1` [Compound P8] came in with a percent control (mortality, anti-feedant effect or growth inhibition) at 200 ppm in data set [1] of at least 80%. The percent effect (mortality or growth inhibition) at 200 ppm in data set [4] and in data set [2] was at least 80% each time. This molecule also came in with a mortality at 200 ppm in data set [5] of at least 80%.

In the case of `CCS(=O)(=O)c1ccc(-c2cncnc2)nc1-n1cc2cnc(C(F)(F)F)cc2n1` [Compound P9], the percent control (mortality, anti-feedant effect or growth inhibition) at 200 ppm in data set [1] was at least 80%. Also, the percent effect (mortality or growth inhibition) at 200 ppm in data set [4], in data set [2] and in data set [3] was at least 80% each time. The same molecule came in with a mortality at 200 ppm in data set [5] of at least 80%.

Regarding `CCS(=O)(=O)c1ccc(-n2cc(C#N)cn2)nc1-n1nc2cc(C(F)(F)F)ncc2c1Cl` [Compound P10, 1-[6-[3-chloro-6-(trifluoromethyl)pyrazolo[4,3-c]pyridin-2-yl]-5-ethylsulfonyl-2-pyridyl]pyrazole-4-carbonitrile], the percent control (mortality, anti-feedant effect or growth inhibition) at 200 ppm in data set [1] is at least 80%. Further, in data set [4], the percent effect (mortality or growth inhibition) at 200 ppm was at least 80%.

`CCS(=O)(=O)c1ccc(-c2cccnc2)nc1-n1cc2cnc(C(F)(F)F)cc2n1` [Compound P12, 2-[3-ethylsulfonyl-6-(3-pyridyl)-2-pyridyl]-6-(trifluoromethyl)pyrazolo[4,3-c]pyridine]: in data set [1], the percent control (mortality, anti-feedant effect or growth inhibition) at 200 ppm was at least 80%. Besides, the percent effect (mortality or growth inhibition) at 200 ppm in data set [4] and in data set [2] was at least 80% throughout.

In turn, `CCS(=O)(=O)c1ccc(NC)nc1-n1nc2cc(C(F)(F)F)ncc2c1Cl` [Compound P13] displayed a melting point of 257 to 259 °C.

Regarding `CCS(=O)(=O)c1ccc(N)nc1-n1nc2cc(C(F)(F)F)ncc2c1Cl` [Compound P14, 6-[3-chloro-6-(trifluoromethyl)pyrazolo[4,3-c]pyridin-2-yl]-5-ethylsulfonyl-pyridin-2-amine], in data set [5], the mortality at 200 ppm is at least 80%.

`CCS(=O)(=O)c1ccc(-c2cccnc2)nc1-n1nc2cc(C(F)(F)F)ncc2c1Cl` [Compound P17, 3-chloro-2-[3-ethylsulfonyl-6-(3-pyridyl)-2-pyridyl]-6-(trifluoromethyl)pyrazolo[4,3-c]pyridine] registered a melting point of 194 to 196 °C.

For `CCS(=O)(=O)c1cc(Cl)c(NC)nc1-n1cc2cnc(C(F)(F)F)cc2n1` [Compound P18], the percent control (mortality, anti-feedant effect or growth inhibition) at 200 ppm in data set [1] was at least 80%. Besides, the percent effect (mortality or growth inhibition) at 200 ppm in data set [4], in data set [2] and in data set [3] was at least 80% throughout. This molecule registered a mortality at 200 ppm in data set [5] of at least 80%.

In the case of `CCS(=O)(=O)c1ccc(-n2ccc(C#N)n2)nc1-n1cc2cnc(C(F)(F)F)cc2n1` [Compound P20], the percent control (mortality, anti-feedant effect or growth inhibition) at 200 ppm in data set [1] is at least 80%. Also, the percent effect (mortality or growth inhibition) at 200 ppm in data set [4], in data set [2] and in data set [3] was at least 80% each time.

As to `CCS(=O)(=O)c1ccc(-n2ccc(C#N)n2)nc1-n1nc2cc(C(F)(F)F)ncc2c1Cl` [Compound P21], the melting point lay within 264 to 266 °C.

With `CCOc1nc(-n2cc3cnc(C(F)(F)F)cc3n2)c(S(=O)(=O)CC)cc1Cl` [Compound P23], in data set [1], the percent control (mortality, anti-feedant effect or growth inhibition) at 200 ppm is at least 80%. Further, the percent effect (mortality or growth inhibition) at 200 ppm in data set [4], in data set [2] and in data set [3] was at least 80% each time. For the same molecule, the mortality at 200 ppm in data set [5] is at least 80%.

In the case of `CCS(=O)(=O)c1cc(Cl)c(OC)nc1-n1cc2cnc(C(F)(F)F)cc2n1` [Compound P24, 2-(5-chloro-3-ethylsulfonyl-6-methoxy-2-pyridyl)-6-(trifluoromethyl)pyrazolo[4,3-c]pyridine], in data set [1], the percent control (mortality, anti-feedant effect or growth inhibition) at 200 ppm was at least 80%. The percent effect (mortality or growth inhibition) at 200 ppm in data set [4], in data set [2] and in data set [3] was at least 80% each time. In data set [5], this molecule registered a mortality at 200 ppm of at least 80%.

As for `CCS(=O)(=O)c1ccc(-n2cnc(SC)n2)nc1-n1nc2cc(C(F)(F)F)ncc2c1Cl` [Compound P26], the melting point was 118 to 120 °C.

Molecule `CCS(=O)(=O)c1ccc(-n2cnc(SC)n2)nc1-n1cc2cnc(C(F)(F)F)cc2n1` [Compound P27] gave a melting point of 172 to 174 °C.

`CCS(=O)(=O)c1ccc(-n2cnc(S(C)(=O)=O)n2)nc1-n1cc2cnc(C(F)(F)F)cc2n1` [Compound P28] registered a melting point of 247 to 249 °C.

The molecule `CCS(=O)(=O)c1ccc(N(C)C)nc1-n1nc2cc(C(F)(F)F)ncc2c1Cl` [Compound P29] displayed a melting point of 166 to 168 °C.

On to `CCS(=O)(=O)c1ccc(N(C)C)nc1-n1cc2cnc(C(F)(F)F)cc2n1` [Compound P30], for which the melting point lay within 256 to 258 °C.

`CCS(=O)(=O)c1ccc(NO)nc1-n1nc2cc(C(F)(F)F)ncc2c1Cl` [Compound P32] returned a melting point of 246 to 248 °C.
